Assay results from the supplement of paper PMC10307832.

Key:
Experiment in all cases: relative viability (nuclei count vs DMSO), 5 days (fraction); higher = more cells survive
TPCA-1 + Foretinib = compound: C1=CC(=CC=C1C2=CC(=C(S2)NC(=O)N)C(=O)N)F [TPCA-1] + COc1cc2c(Oc3ccc(NC(=O)C4(C(=O)Nc5ccc(F)cc5)CC4)cc3F)ccnc2cc1OCCCN1CCOCC1 [Foretinib] (partner 0.25 µM)
Procedure, shortened: (§1)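 Lung cancer cell lines in 1536-well plates got either a single drug or a fixed anchor-drug dose together with five library-drug doses (not always all listed) in √10 steps, by pin tool, on the day after seeding. Nuclei were counted after 5 days, and relative viability is the treated-to-vehicle ratio of nuclei counts. Values are medians of duplicate plates.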

[1] = compound: C1/C(=C\C2=CC=CS2)/C(=O)/C(=C/C3=CC=CS3)/C1 + COc1cc2c(Oc3ccc(NC(=O)C4(C(=O)Nc5ccc(F)cc5)CC4)cc3F)ccnc2cc1OCCCN1CCOCC1 [Foretinib] (partner 0.25 µM)
Procedure, shortened: as §1

[2] = compound: C[C@]12O[C@H](C[C@]1(O)CO)n1c3ccccc3c3c4c(c5c6ccccc6n2c5c31)CNC4=O [Lestaurtinib] + CC(C)C[C@H](NC(=O)[C@H](Cc1ccccc1)NC(=O)c1cnccn1)B(O)O [Bortezomib] (partner 0.002 µM)
Procedure, shortened: as §1

[3] = compound: C[C@]12O[C@H](C[C@]1(O)CO)n1c3ccccc3c3c4c(c5c6ccccc6n2c5c31)CNC4=O [Lestaurtinib] + CCNC(=O)c1noc(-c2cc(C(C)C)c(O)cc2O)c1-c1ccc(CN2CCOCC2)cc1 [Luminespib] (partner 0.01 µM)
Procedure, shortened: as §1

Cell Line	relative viability (TPCA-1 + Foretinib; first compound 0.04 µM)	relative viability (TPCA-1 + Foretinib; first compound 0.1265 µM)	relative viability (TPCA-1 + Foretinib; first compound 0.4 µM)	relative viability (TPCA-1 + Foretinib; first compound 1.265 µM)	relative viability (TPCA-1 + Foretinib; first compound 4 µM)	relative viability ([1]; first compound 0.2 µM)	relative viability ([1]; first compound 0.6325 µM)	relative viability ([1]; first compound 2 µM)	relative viability ([1]; first compound 6.325 µM)	relative viability ([1]; first compound 20 µM)	relative viability ([2]; first compound 0.005 µM)	relative viability ([2]; first compound 0.01581 µM)	relative viability ([2]; first compound 0.05 µM)	relative viability ([2]; first compound 0.1581 µM)	relative viability ([2]; first compound 0.5 µM)	relative viability ([3]; first compound 0.005 µM)	relative viability ([3]; first compound 0.01581 µM)	relative viability ([3]; first compound 0.05 µM)	relative viability ([3]; first compound 0.1581 µM)	relative viability ([3]; first compound 0.5 µM)
SK-LU-1	0.806	0.736	0.876	0.617	0.377	0.846	0.85	0.937	0.795	0.831	0.975	1.26	0.763	0.673	0.362	0.206	0.22	0.177	0.203	0.215
A-427	1.01	1.05	1.05	0.921	0.695	1.04	1.01	1.06	0.992	1.16	0.98	1.05	0.835	0.446	0.212	1.03	0.797	0.649	0.298	0.185
SW 1573	0.6	0.811	1.03	0.964	0.866	0.879	0.965	0.939	0.843	0.825	1.2	1.05	0.842	0.916	0.727	0.218	0.236	0.182	0.315	0.131
NCI-H322M	1.2	0.973	1.01	0.998	0.633	1	1.06	1.1	0.855	0.874	1.25	1.34	1.13	0.588	0.967	0.773	0.713	0.449	0.337	0.329
ABC-1	1.28	1.11	1.27	0.964	0.778	0.984	0.991	1.1	0.617	1.2	0.352	0.332	0.292	0.308	0.2	–	0.323	0.445	0.331	0.178
NCI-H2023	0.88	0.86	0.874	0.797	0.658	–	0.949	0.998	0.82	1.05	1.03	1.11	0.731	0.65	0.108	0.848	0.983	0.48	0.524	0.119
NCI-H596	0.953	0.811	0.855	0.98	0.937	0.895	0.847	0.872	0.753	0.905	1.16	1.28	0.969	1.29	1.06	0.959	1.12	1.03	1.27	0.953
NCI-H2405	1.03	1.05	1.11	0.991	1.03	1.11	1.03	1.17	0.948	1.12	1	1.01	0.883	0.977	0.734	0.747	0.631	0.585	0.548	0.262
LCLC-103H	0.899	0.813	0.758	0.839	0.64	0.804	0.8	0.787	0.668	0.732	1.09	1.07	0.943	0.908	0.56	1.04	1.08	0.767	0.501	0.34
NCI-H460	1.05	0.918	1.07	1.05	0.857	1.02	1.06	1.02	0.881	0.99	1.08	1.35	0.926	1.44	0.84	0.0333	0.0274	0.0352	0.0238	0.0199
NCI-H1755	0.914	0.895	0.923	0.832	0.669	0.931	0.959	1.01	0.817	0.928	1.01	0.95	0.938	0.455	0.371	0.41	0.42	0.453	0.211	0.204
NCI-H1734	0.897	0.742	0.917	0.818	0.732	0.805	0.939	0.92	0.797	0.818	1.08	0.904	0.681	0.456	0.325	0.2	0.0895	0.185	0.159	0.155
EPLC-272H	0.747	0.643	0.815	0.456	0.309	0.602	0.776	0.657	0.594	0.601	1.02	1.15	0.603	0.828	0.486	0.196	0.235	0.184	0.241	0.133
NCI-H2126	1.25	0.721	1.16	1.06	1	1.38	0.985	1.3	1.08	1.08	1.19	1.11	0.957	1.17	0.861	0.944	0.891	0.776	0.817	0.538
